Reference: ChEMBL document CHEMBL3792365, “Dioxol and dihydrodioxin analogs of 2- and 3-phenylacetonitriles as potent anti-cancer agents with nanomolar activity against a variety of human cancer cells” (2016)

What was measured:
Type in all cases: functional
[1] = system: NCI-H23; assay: Growth inhibition of human NCI-H23 cells at 10 uM after 48 hrs by sulforhodamine B assay; details: NCI-H23, 48 h, values are per cent of control
[2] = Growth inhibition of human LOXIMVI cells at 10 uM after 48 hrs by sulforhodamine B assay; details: LOX IMVI, values are per cent of control
[3] = Growth inhibition of human HCT15 cells at 10 uM after 48 hrs by sulforhodamine B assay; details: HCT-15, 48 h, values are per cent of control
[4] = Growth inhibition of human OVCAR8 cells at 10 uM after 48 hrs by sulforhodamine B assay; details: OVCAR-8, 48 h, values are per cent of control
[5] = system: NCI-H226; assay: Growth inhibition of human NCI-H226 cells at 10 uM after 48 hrs by sulforhodamine B assay; details: NCI-H226, 48 h, values are per cent of control
[6] = system: M14; assay: Growth inhibition of human M14 cells at 10 uM after 48 hrs by sulforhodamine B assay; details: M14, 48 h, values are per cent of control
[7] = Growth inhibition of human SNB75 cells at 10 uM after 48 hrs by sulforhodamine B assay; details: SNB-75, 48 h, values are per cent of control
[8] = system: A498; assay: Growth inhibition of human A498 cells at 10 uM after 48 hrs by sulforhodamine B assay; details: A498, 48 h, values are per cent of control
[9] = system: NCI-H460; assay: Growth inhibition of human NCI-H460 cells at 10 uM after 48 hrs by sulforhodamine B assay; details: NCI-H460, 48 h, values are per cent of control
[10] = Growth inhibition of human SW620 cells at 10 uM after 48 hrs by sulforhodamine B assay; details: SW-620, 48 h, values are per cent of control
[11] = Growth inhibition of human SF295 cells at 10 uM after 48 hrs by sulforhodamine B assay; details: SF-295, 48 h, values are per cent of control
[12] = system: NCI-H322M; assay: Growth inhibition of human NCI-H322M cells at 10 uM after 48 hrs by sulforhodamine B assay; details: values are per cent of control
[13] = system: HT-29; assay: Growth inhibition of human HT-29 cells at 10 uM after 48 hrs by sulforhodamine B assay; details: HT-29, 48 h, values are per cent of control
[14] = system: K562; assay: Growth inhibition of human K562 cells at 10 uM after 48 hrs by sulforhodamine B assay; details: K562, 48 h, values are per cent of control
[15] = Growth inhibition of human OVCAR5 cells at 10 uM after 48 hrs by sulforhodamine B assay; details: OVCAR-5, 48 h, values are per cent of control
[16] = system: SN12C; assay: Growth inhibition of human SN12C cells at 10 uM after 48 hrs by sulforhodamine B assay; details: values are per cent of control
[17] = system: SK-MEL-2; assay: Growth inhibition of human SK-MEL-2 cells at 10 uM after 48 hrs by sulforhodamine B assay; details: SK-MEL-2, 48 h, values are per cent of control
[18] = system: SR; assay: Growth inhibition of human SR cells at 10 uM after 48 hrs by sulforhodamine B assay; details: values are per cent of control
[19] = Growth inhibition of human Hs 578T cells at 10 uM after 48 hrs by sulforhodamine B assay; details: values are per cent of control
[20] = Growth inhibition of human COLO205 cells at 10 uM after 48 hrs by sulforhodamine B assay; details: COLO 205, 48 h, values are per cent of control
[21] = Growth inhibition of human OVCAR4 cells at 10 uM after 48 hrs by sulforhodamine B assay; details: OVCAR-4, 48 h, values are per cent of control
[22] = Growth inhibition of human HCT116 cells at 10 uM after 48 hrs by sulforhodamine B assay; details: HCT-116, 48 h, values are per cent of control
[23] = system: 786-0; assay: Growth inhibition of human 786-0 cells at 10 uM after 48 hrs by sulforhodamine B assay; details: 786-0, 48 h, values are per cent of control
[24] = Growth inhibition of human HOP62 cells at 10 uM after 48 hrs by sulforhodamine B assay; details: HOP-62, 48 h, values are per cent of control
[25] = system: SK-MEL-5; assay: Growth inhibition of human SK-MEL-5 cells at 10 uM after 48 hrs by sulforhodamine B assay; details: SK-MEL-5, 48 h, values are per cent of control
[26] = Growth inhibition of human IGROV1 cells at 10 uM after 48 hrs by sulforhodamine B assay; details: IGROV-1, 48 h, values are per cent of control
[27] = Growth inhibition of human UO31 cells at 10 uM after 48 hrs by sulforhodamine B assay; details: UO-31, 48 h, values are per cent of control
[28] = system: MDA-MB-231; assay: Growth inhibition of human MDA-MB-231 cells at 10 uM after 48 hrs by sulforhodamine B assay; details: MDA-MB-231, 48 h, values are per cent of control
[29] = Growth inhibition of human BT549 cells at 10 uM after 48 hrs by sulforhodamine B assay; details: BT-549, 48 h, values are per cent of control
[30] = Growth inhibition of human SNB19 cells at 10 uM after 48 hrs by sulforhodamine B assay; details: SNB-19, 48 h, values are per cent of control
[31] = system: SK-MEL-28; assay: Growth inhibition of human SK-MEL-28 cells at 10 uM after 48 hrs by sulforhodamine B assay; details: SK-MEL-28, 48 h, values are per cent of control
[32] = system: A549; assay: Growth inhibition of human A549/ATCC cells at 10 uM after 48 hrs by sulforhodamine B assay; details: A549, 48 h, values are per cent of control
[33] = Growth inhibition of human SF539 cells at 10 uM after 48 hrs by sulforhodamine B assay; details: SF-539, 48 h, values are per cent of control
[34] = system: KM12; assay: Growth inhibition of human KM12 cells at 10 uM after 48 hrs by sulforhodamine B assay; details: KM12, 48 h, values are per cent of control
[35] = system: ACHN; assay: Growth inhibition of human ACHN cells at 10 uM after 48 hrs by sulforhodamine B assay; details: values are per cent of control
[36] = Growth inhibition of human DU145 cells at 10 uM after 48 hrs by sulforhodamine B assay; details: DU-145, 48 h, values are per cent of control
[37] = Growth inhibition of human UACC62 cells at 10 uM after 48 hrs by sulforhodamine B assay; details: UACC-62, 48 h, values are per cent of control
[38] = Growth inhibition of human Caki1 cells at 10 uM after 48 hrs by sulforhodamine B assay; details: CAKI-1, 48 h, values are per cent of control
[39] = system: MDA-MB-435; assay: Growth inhibition of human MDA-MB-435 cells at 10 uM after 48 hrs by sulforhodamine B assay; details: MDA-MB-435, 48 h, values are per cent of control
[40] = Growth inhibition of human RXF393 cells at 10 uM after 48 hrs by sulforhodamine B assay; details: RXF 393, 48 h, values are per cent of control

Structure (SMILES)	growth, % of control at 10 µM [1] [%]	growth, % of control at 10 µM [2] [%]	growth, % of control at 10 µM [3] [%]	growth, % of control at 10 µM [4] [%]	growth, % of control at 10 µM [5] [%]	growth, % of control at 10 µM [6] [%]	growth, % of control at 10 µM [7] [%]	growth, % of control at 10 µM [8] [%]	growth, % of control at 10 µM [9] [%]	growth, % of control at 10 µM [10] [%]	growth, % of control at 10 µM [11] [%]	growth, % of control at 10 µM [12] [%]	growth, % of control at 10 µM [13] [%]	growth, % of control at 10 µM [14] [%]	growth, % of control at 10 µM [15] [%]	growth, % of control at 10 µM [16] [%]	growth, % of control at 10 µM [17] [%]	growth, % of control at 10 µM [18] [%]	growth, % of control at 10 µM [19] [%]	growth, % of control at 10 µM [20] [%]	also measured
N#C/C(=C\c1ccc2c(c1)OCO2)c1ccc2c(c1)OCO2	83.2	65.1	43.9	83.8	94.9	50.8	94.3	73.7	83.6	42.9	76.5	106	39.6	24.9	97.9	90.7	63.5	26.2	89.7	59.8	growth, % of control at 10 µM [21]: 89.7%; growth, % of control at 10 µM [22]: 57.5%; growth, % of control at 10 µM [23]: 90%; growth, % of control at 10 µM [24]: 76.7%; growth, % of control at 10 µM [25]: 75.9%; growth, % of control at 10 µM [26]: 66.1%; growth, % of control at 10 µM [27]: 86.7%; growth, % of control at 10 µM [28]: 66.8%; growth, % of control at 10 µM [29]: 49.6%; growth, % of control at 10 µM [30]: 95.9%; growth, % of control at 10 µM [31]: 88.5%; growth, % of control at 10 µM [32]: 59.5%; growth, % of control at 10 µM [33]: 79.4%; growth, % of control at 10 µM [34]: 42.2%; growth, % of control at 10 µM [35]: 96.2%; growth, % of control at 10 µM [36]: 92.5%; growth, % of control at 10 µM [37]: 69.4%; growth, % of control at 10 µM [38]: 66.8%; growth, % of control at 10 µM [39]: -5.7%; growth, % of control at 10 µM [40]: 94.7%
COc1ccc(/C=C(\C#N)c2ccc3c(c2)OCO3)c2ccccc12	49.9	35.2	21.4	29	38.5	16.2	-3.1	-8.4	13.2	10.6	5.6	34.3	10	19.1	55.7	38.6	13.1	18.4	-14.1	7.6	growth, % of control at 10 µM [21]: 49.7%; growth, % of control at 10 µM [22]: 21.1%; growth, % of control at 10 µM [23]: 40.2%; growth, % of control at 10 µM [24]: 44.4%; growth, % of control at 10 µM [25]: 19.1%; growth, % of control at 10 µM [26]: 36.3%; growth, % of control at 10 µM [27]: 42.1%; growth, % of control at 10 µM [28]: 39.4%; growth, % of control at 10 µM [29]: 26.6%; growth, % of control at 10 µM [30]: 36.1%; growth, % of control at 10 µM [31]: 43.6%; growth, % of control at 10 µM [32]: 31.7%; growth, % of control at 10 µM [33]: -42.9%; growth, % of control at 10 µM [34]: 21%; growth, % of control at 10 µM [35]: 44.7%; growth, % of control at 10 µM [36]: 14.9%; growth, % of control at 10 µM [37]: 25.1%; growth, % of control at 10 µM [38]: 30.8%; growth, % of control at 10 µM [39]: -26.3%; growth, % of control at 10 µM [40]: -17.7%
